According to patent US20190083521A1, “COMBINATION THERAPY FOR TREATING CANCER” (Epizyme, Inc., priority 2014, published 2019):

Columns and labels:
Type in all cases: cell-based, human
MV4-11 (MLL-AF4) cells = assay: Combination proliferation assay with Compound A2 (CellTiter-Glo, Chou-Talalay CI); settings: for Combination effect with Compound A2 / Combination effect with Compound A2 (Table 5): MV4-11; for Combination effect with Compound A2: 7 Day Cotreatment (Example 1); for Combination effect with Compound A2 (Table 2): MV4-11 MLL-AF4; for Combination effect with Compound A2 (Table 4): MV4-11 (MLL-AF4); for Combination effect with Compound A2 (Table 4) / Combination effect with Compound A2 (Table 5): 7 Day Cotreatment Model
Protocol: (§1) The acute myelogenous leukemia cell lines MV4-11 (MLL-AF4) and MOLM-13 (MLL-AF9) were obtained from American Type Culture Collection (ATCC; Rockville, Md.) and Deutsche Sammlung von Mikroorganismen and Zellkulturen (DSMZ; Braunschweig, Germany) respectively.
(§2) Studies were performed using MLL-rearranged cell lines in vitro to evaluate the anti-proliferative effect of a combination of two agents together on cell growth. Initial proliferation studies were performed to determine the IC50 of a given compound in each cell line. The cell counts were measured by ATP quantitation using the Promega Cell Titer Glo kit and luminescence values corresponded to the amount of ATP in a given well.
(§3) Compounds were evaluated for synergy in the co-treatment phase by testing the compounds in a concentration range which was bracketed around their IC50 values. The compounds were plated to a 96 well plate in a matrix format (FIG. 3) which includes increasing concentrations of each drug in the combination in a constant ratio, in addition to the effect of each compound alone in the study. Cells were seeded and grown in the log-linear phase for 3 or 7 days in the co-treatment phase. Minimum inhibition (DMSO alone) controls were used in each plate to calculate fraction affected (Fa) of a test well. DMSO concentration was kept at 0.1% v/v.
(§4) The drug combination analysis was performed utilizing the Chou-Talalay method Synergy was determined using the software package Calcusyn by Biosoft. The combination index (CI) is a quantitative term used to describe the level of synergy or antagonism in a given test system. A combination index less than one indicates synergy, and a CI greater than one indicates antagonism. Further, strong synergism is achieved when the CI value falls below 0.3.
(§5) The HP-D300 digital dispenser (Tecan) was used to dispense compounds in a combinatorial matrix. […] Cell viability was measured via ATP content using CellTiter-Glo® (Promega).
(§6) Viability was determined using CellTiter-Glo® (Promega).
as §2, with “Proliferation studies” for “Studies”, “MOLM-13, MV4-11 and SKM-1” for “MLL-rearranged”, “cancer cell killing” for “anti-proliferative”, “IC50 values” for “IC50”, “correspond” for “corresponded”
(§7) These studies were performed to evaluate both the combinatorial effect of compounds on cell killing and the durability of the effect by washing out one of the agents.
(§8) Compounds evaluated for synergy in the co-treatment phase were tested in a range which was bracketed around the IC50's. The compounds were plated to a 96 well plate in a matrix format which includes increasing concentrations of each drug in the combination in a constant ratio, in addition to the effect of each compound alone in the study. Cells were seeded and grown in the log-linear phase for 3 or 7 days in the cotreatment phase. Maximum and minimum inhibition (DMSO alone) controls were used in each plate to calculate fraction affected (Fa) of a test well. DMSO concentration was kept at 0.1% v/v. The drug combination analysis was performed utilizing the Chou-Talalay method. Synergy was determined using the software package Calcusyn by Biosoft. The combination index (CI) is the term used to describe the level of synergy or antagonism in a given test system. A combination index less than one indicates synergy, and a CI greater than one indicates antagonism.
The drug combination analysis was performed using the Chou-Talalay method. Graphs representing values of combination index (CI) versus Fractional effect (Fa) known as Fa-CI plots were generated and synergy was evaluated. Drug synergy was statistically defined by CI values less than 1, antagonism by CI>1 and additive effect by CI equal to 1.

MOLM-13 (MLL-AF9) cells = assay: as above; settings: for Combination effect with Compound A2 (Table 2): MOLM-13 MLL-AF9; for Combination effect with Compound A2: MOLM-13, 7 Day Cotreatment (Example 1); for Combination effect with Compound A2 (Table 4): MOLM-13 (MLL-AF9), 7 Day Cotreatment Model
Protocol: as §1, §2, §3, §4, §5, §6
Cell viability was measured via ATP content using CellTiter-Glo® (Promega).
as §2, with “Proliferation studies” for “Studies”, “MOLM-13, MV4-11 and SKM-1” for “MLL-rearranged”, “cancer cell killing” for “anti-proliferative”, “IC50 values” for “IC50”, “correspond” for “corresponded”
as §7, §8
The drug combination analysis was performed using the Chou-Talalay method. Graphs representing values of combination index (CI) versus Fractional effect (Fa) known as Fa-CI plots were generated and synergy was evaluated.

MOLM-13 cells = assay: Example 6 combination screen: 300 nM EPZ-5676 pre-treatment, second compound 72 h, ATPLite, IC50 shift; settings: 300 nM EPZ-5676 pre-treatment (4 + 3 days) vs DMSO, then 2nd compound 72 h, IC50 shift of 2nd compound
Protocol: (§9) Cells were then equilibrated in incubators for 24 hours before treatment with a second compound. Treated assay plates were incubated with a second compound for 72 hours. After this time, plates were developed for endpoint analysis using ATPLite to measure ATP content, which is used as an indicator of cell viability.
(§10) “N/D” means that IC50 of the second compound could not be determined for both conditions.

SKM-1 cells = assay: as above; settings: SKM-1 cells; 300 nM EPZ-5676 pre-treatment (4 + 3 days) vs DMSO, then 2nd compound 72 h; ATPLite; IC50 shift of 2nd compound
Protocol: as §9, §10

COc1cc2c(cc1-c1c(C)noc1C)ncc1[nH]c(=O)n([C@H](C)c3ccccn3)c12 [IBET-151]
Combination effect with Compound A2 (MV4-11 (MLL-AF4) cells): Synergy (A combination index less than one indicates synergy)
Combination effect with Compound A2 (Table 2) (MV4-11 (MLL-AF4) cells): Synergy (Drug synergy was statistically defined by CI values less than 1)
Combination effect with Compound A2 (Table 2) (MOLM-13 (MLL-AF9) cells): Synergy (Drug synergy was statistically defined by CI values less than 1)

O=C1c2ccccc2-c2nc3nonc3nc21 [SMER 3]
Summary of Combination Studies: MOLM-13 (MOLM-13 cells): Synergy (considered synergistic if the IC50 value of the second compound decreased by 2-fold or more when EPZ-5676 was added as compared to the DMSO control)

Cc1sc2c(c1C)C(c1ccc(Cl)cc1)=N[C@@H](CC(N)=O)c1nnc(C)n1-2 [CPI-203]
Summary of Combination Studies: SKM-1 (SKM-1 cells): Synergy (considered synergistic if the IC50 value of the second compound decreased by 2-fold or more when EPZ-5676 was added as compared to the DMSO control)
Summary of Combination Studies: MOLM-13 (MOLM-13 cells): Synergy (considered synergistic if the IC50 value of the second compound decreased by 2-fold or more when EPZ-5676 was added as compared to the DMSO control)

Cc1cc(Cl)cc(OCCn2cc(F)cn2)c1-c1nc(N)nc2c1CN(C(=O)NCC(C)(F)F)C2 [BEP800]
Summary of Combination Studies: MOLM-13 (MOLM-13 cells): Synergy (considered synergistic if the IC50 value of the second compound decreased by 2-fold or more when EPZ-5676 was added as compared to the DMSO control)

O=C(/C=C/c1ccc(O)c(O)c1)OCCc1ccccc1 [CAPE]
Summary of Combination Studies: SKM-1 (SKM-1 cells): Synergy (considered synergistic if the IC50 value of the second compound decreased by 2-fold or more when EPZ-5676 was added as compared to the DMSO control)
Summary of Combination Studies: MOLM-13 (MOLM-13 cells): Synergy (considered synergistic if the IC50 value of the second compound decreased by 2-fold or more when EPZ-5676 was added as compared to the DMSO control)

CC(=O)O/N=C1\C(=O)N(Cc2cc(Cl)ccc2Cl)c2ccc(Cl)cc21 [LDN 57444]
Summary of Combination Studies: MOLM-13 (MOLM-13 cells): Synergy (considered synergistic if the IC50 value of the second compound decreased by 2-fold or more when EPZ-5676 was added as compared to the DMSO control)

c1ccc2c(CCNc3ccc(Nc4ccncc4)cc3)c[nH]c2c1 [JNJ 26854165]
Summary of Combination Studies: MOLM-13 (MOLM-13 cells): Synergy (considered synergistic if the IC50 value of the second compound decreased by 2-fold or more when EPZ-5676 was added as compared to the DMSO control)

Nc1ccccc1NC(=O)c1ccc(CNC(=O)OCc2cccnc2)cc1 [MS-275]
Summary of Combination Studies: MOLM-13 (MOLM-13 cells): Synergy (considered synergistic if the IC50 value of the second compound decreased by 2-fold or more when EPZ-5676 was added as compared to the DMSO control)

CC1(C)CCC(c2ccc(Cl)cc2)=C(CN2CCN(c3ccc(C(=O)NS(=O)(=O)c4ccc(N[C@H](CCN5CCOCC5)CSc5ccccc5)c(S(=O)(=O)C(F)(F)F)c4)cc3)CC2)C1 [Navitoclax]
Combination effect with Compound A2 (MV4-11 (MLL-AF4) cells): synergy
Combination effect with Compound A2 (MOLM-13 (MLL-AF9) cells): synergy

O=c1cc(N2CCOCC2)oc2c(-c3cccc4c3sc3ccccc34)cccc12 [NU 7441]
Summary of Combination Studies: MOLM-13 (MOLM-13 cells): Synergy (considered synergistic if the IC50 value of the second compound decreased by 2-fold or more when EPZ-5676 was added as compared to the DMSO control)

CC(=O)OC[C@H]1O[C@@H]([S-])[C@H](OC(C)=O)[C@@H](OC(C)=O)[C@@H]1OC(C)=O.CCP(CC)CC.[Au+] [Auranofin]
Summary of Combination Studies: MOLM-13 (MOLM-13 cells): Synergy (considered synergistic if the IC50 value of the second compound decreased by 2-fold or more when EPZ-5676 was added as compared to the DMSO control)

O=C(c1cn(Cc2cncn2Cc2ccc(Br)cc2)cc1-c1cccc2ccccc12)N1CCOCC1 [LB42708]
Summary of Combination Studies: SKM-1 (SKM-1 cells): Synergy (considered synergistic if the IC50 value of the second compound decreased by 2-fold or more when EPZ-5676 was added as compared to the DMSO control)
Summary of Combination Studies: MOLM-13 (MOLM-13 cells): Synergy (considered synergistic if the IC50 value of the second compound decreased by 2-fold or more when EPZ-5676 was added as compared to the DMSO control)

c1ccc([C@@H]2C[C@H]2NC2CCNCC2)cc1 [GSK-LSD1]
Summary of Combination Studies: MOLM-13 (MOLM-13 cells): Synergy (considered synergistic if the IC50 value of the second compound decreased by 2-fold or more when EPZ-5676 was added as compared to the DMSO control)

COc1ccc(C2=N[C@@H](c3ccc(Cl)cc3)[C@@H](c3ccc(Cl)cc3)N2C(=O)N2CCNC(=O)C2)c(OC(C)C)c1 [Nutlin-3]
Summary of Combination Studies: MOLM-13 (MOLM-13 cells): Synergy (considered synergistic if the IC50 value of the second compound decreased by 2-fold or more when EPZ-5676 was added as compared to the DMSO control)

Nc1ncn([C@H]2C[C@H](O)[C@@H](CO)O2)c(=O)n1 [Decitabine]
Combination effect with Compound A2 (Table 2) (MV4-11 (MLL-AF4) cells): Synergy (Drug synergy was statistically defined by CI values less than 1)
Combination effect with Compound A2 (Table 2) (MOLM-13 (MLL-AF9) cells): Synergy (Drug synergy was statistically defined by CI values less than 1)

N.N.[Cl][Pt][Cl] [Cisplatin]
Summary of Combination Studies: MOLM-13 (MOLM-13 cells): Synergy (considered synergistic if the IC50 value of the second compound decreased by 2-fold or more when EPZ-5676 was added as compared to the DMSO control)

CCCc1cc2c(N3CCN(C4=NCC(C)(C)S4)CC3)ncnc2s1 [Menin-MLL inhibitor MI-2]
Combination effect with Compound A2 (Table 4) (MV4-11 (MLL-AF4) cells): Synergy (Drug synergy was statistically defined by CI values less than 1)
Combination effect with Compound A2 (Table 4) (MOLM-13 (MLL-AF9) cells): Synergy (Drug synergy was statistically defined by CI values less than 1)

Cc1sc2c(c1C)C(c1ccc(Cl)cc1)=N[C@@H](CC(=O)OC(C)(C)C)c1nnc(C)n1-2 [JQ1]
Combination effect with Compound A2 (Table 4) (MV4-11 (MLL-AF4) cells): Additive (additive effect by CI equal to 1)
Combination effect with Compound A2 (Table 2) (MV4-11 (MLL-AF4) cells): Additive (additive effect by CI equal to 1)
Combination effect with Compound A2 (Table 4) (MOLM-13 (MLL-AF9) cells): Additive (additive effect by CI equal to 1)
Combination effect with Compound A2 (Table 2) (MOLM-13 (MLL-AF9) cells): Additive (additive effect by CI equal to 1)

CC[C@@H]1C(=O)N(C)c2cnc(Nc3ccc(C(=O)N[C@H]4CC[C@H](N5CCN(CC6CC6)CC5)CC4)cc3OC)nc2N1C(C)C [Volasertib]
Combination effect with Compound A2 (Table 5) (MV4-11 (MLL-AF4) cells): Antagonstic

Clc1ccc(C2(c3ccc(-c4cn[nH]c4)cc3)CCNCC2)cc1 [AT7867]
Summary of Combination Studies: MOLM-13 (MOLM-13 cells): Synergy (considered synergistic if the IC50 value of the second compound decreased by 2-fold or more when EPZ-5676 was added as compared to the DMSO control)

Cn1cncc1[C@@](N)(c1ccc(Cl)cc1)c1ccc2c(c1)c(-c1cccc(Cl)c1)cc(=O)n2C [Tipifarnib]
Combination effect with Compound A2 (Table 5) (MV4-11 (MLL-AF4) cells): Synergy (Drug synergy was statistically defined by CI values less than 1)

Cc1cccc(-c2[nH]c(C(C)(C)C)nc2-c2ccc3c(c2)OCO3)n1 [SB-505124]
Summary of Combination Studies: MOLM-13 (MOLM-13 cells): Synergy (considered synergistic if the IC50 value of the second compound decreased by 2-fold or more when EPZ-5676 was added as compared to the DMSO control)

N[C@@H]1C[C@H]1c1ccccc1 (racemic) [Tranylcypromine]
Combination effect with Compound A2 (Table 4) (MV4-11 (MLL-AF4) cells): Synergy (Drug synergy was statistically defined by CI values less than 1)
Combination effect with Compound A2 (MV4-11 (MLL-AF4) cells): synergy
Combination effect with Compound A2 (Table 4) (MOLM-13 (MLL-AF9) cells): Strong Synergy
Combination effect with Compound A2 (MOLM-13 (MLL-AF9) cells): synergy
